Experimental data: patent US20180177891A1, “Nanoparticle-Based Antigen Specific Immunotherapy” (Midatech Limited, priority 2015, published 2018)
Each block holds one molecule with its values, some of them ahead of it. Where no end group is shown, it is not given here.

Experiments:
[1] = Solubility tests; assay type: physicochemical
Method: Given the low incorporation of 10% C19-A3 peptide into GNPs (3-5%) using the 75% methanol-based preparation method, solubility tests were performed to determine the optimal solution for C19-A3 peptide conjugation to gold nanoparticles. […] Therefore, water-based GNP synthesis methods were developed using low (10%) or intermediate (35%) levels of methanol, and vivaspin centrifugation to remove any unbound peptide. GNPs containing 10% C19-A3 peptide and 10% glucose C2 (NP58) or 10% mannose C2 (NP61) were synthesised using a water-based (10% methanol) method (Table 12). HPLC analysis of peptide released from the C19-A3-GNPs following treatment with KCN solution (100 mM), confirmed 100% and 62% incorporation efficiency of C19-A3 peptide, with 31 and 19 peptides bound per GNP, for NP58 and NP61, respectively. An intermediate 35% methanol preparation method was also tested for synthesis of 10% C19-A3, 10% glucose C2 GNPs (NP63). HPLC analysis again confirmed high incorporation of C19-A3 peptide (67%), with 20 peptides bound per GNP.

[2] = system: OT-II (ovalbumin peptide (323-339) specific) CD4+ T cells; assay: OT-II T cell proliferation in draining LN after intradermal injection; assay type: in vivo, C57BL/6 mice; details: 3 days later, flow cytometry
Method: PBS, ovalbumin peptide (323-339) or ovalbumin peptide (323-339) containing GNPs (NP167, NP168) were injected intradermally in C57BL/6 mice 24 h after i.v. administration of fluorescent cell trace violet (CTV)-labelled OT-II (ovalbumin peptide (323-339) specific) CD4+ T cells. 3 days later, draining LN cells were isolated and studied by flow cytometry. The presence of OT-II cells in the LN was shown by the appearance of cells of that are […] CD45.1^+Vα2^+ and high CTV fluorescence (right hand edge of square). Proliferation of OT-II cells was seen as dilution of the CTV fluorescence, bringing the cells progressively at each cell cycle into the blue box. The percentage of cells with the proliferation square is shown. […] Each plot represents the results from a different mouse.
PBS, ovalbumin peptide (323-339), or ovalbumin peptide (323-339) coupled GNPs (NP167, NP168) were administered intradermally to C57BL-6 mice, at the same time as i.v. administration of fluorescent cell trace violet (CTV) labelled OT-II (Ovalbumin peptide specific) CD4 positive T cells. Draining LN and spleen cells were harvested 3 days after ovalbumin (323-339) peptide administration, and studied by flow cytometry. Where fluorescent cells are seen but the level of fluorescence has been reduced, this implies that they have recognised their target peptide on APCs in that tissue and undergone cell division.

[3] = system: BDC-2.5 CD4+ T cells; assay: BDC-2.5 CD4+ T cell proliferation in LNs and spleen after injection; assay type: in vivo, murine
Excerpt: Increased proliferation is seen with GNPs coupled to antigen both in the draining and distant LN sites and spleen.
A similar in vivo protocol was designed, using fluorescently labelled indicator CD4^+ T cells (BDC-2.5, specific for chromograninA 342-355 found in pancreatic beta cells) and the peptide “BDC-2.5 mimotope” (a peptide of similar configuration to this epitope, that mimics the chromogranin A 342-355 peptide) coupled to GNPs linked to either mannose C2 or glucose C2.
A preliminary in vivo experiment was carried out using the murine BDC-2.5 mimotope peptide and fluorescently-labelled indicator CD4 T cell clones specific for this peptide described above. GNPs were given coupled to peptide (BDC-2.5 mimotope), IL-10, or both, and compared to blank GNPs of injected controls. […] This provides evidence that the cytokine travels with the GNPs to distant sites when complexed with GNPs, and in bioactive form. This is of enhanced efficiency compared to IL-10 alone.

[4] = system: OT-II (ovalbumin peptide (323-339) specific) CD4+ T cells; assay: Accumulation of fluorescent cells in LN of CCR7−/− mice; assay type: in vivo; details: CCR7−/− compared to wildtype B6 mice
Method: In order to determine whether the injected peptide is carried to draining LNs in fluid phase or carried via migratory skin DCs, homozygous knockout mice for the chemokine receptor CCR7 (which mediates DC migration from skin) were treated in the same protocol as above.

[5] = system: Human immature monocyte derived dendritic cells (iDCs); assay: Cytokine release by DCs after LPS (Luminex); assay type: cell-based
Method: iDCs were also incubated with proinsulin C19-A3 GNPs coupled to glucose (GNPgluc), with proinsulin C19-A3 GNPs coupled to mannose (GNPman), or without GNPs for 4 hrs. Thereafter, cells were washed and subsequently stimulated with 100 ng/ml LPS and left overnight. Supernatants were collected the next day and cytokine (IL-10, IL-12 and TNF) release by DCs measured using Luminex.
(§1) However, IL-10-GNPs changed the ability of DCs to upregulate HLA-DR and activation molecules CD80 and CD25 upon stimulation with LPS.

[6] = system: Human immature monocyte derived dendritic cells (iDCs); assay: DC maturation (CD80, HLA-DR expression, FACS); assay type: cell-based; details: subsequent stimulation with LPS
Method: Human immature monocyte derived dendritic cells (iDCs) were incubated with proinsulin C19-A3 coupled GNPs or without GNPs for 4 h. Thereafter, the GNPs were washed off and cells left overnight, either alone or in the presence of 100 ng/ml LPS. Overnight maturation of DCs was measured as increases of CD80 and HLA-DR expression using FACS.
as §1

solubility in water [1]: highly soluble
Molecule: GSLQPLALEGSLQKRGIV [C19-A3 peptide, GSLQPLALEGSLQKRGIV]

Molecule: ISQAVHAAHAEINEAGR [ovalbumin peptide, Ovalbumin 323-339 peptide, reference compound]
OT-II cell accumulation and proliferation in draining LN [2]: low levels

Molecule: YVRPLWVRME [BDC-2.5 mimotope peptide, peptide that mimics the chromogranin A 342-355 peptide, reference compound]
accumulation of proliferating indicator cells in draining LN, distant LNs and spleen ([3]; 3 days after injection): modest accumulation of proliferating indicator cells

Molecule: ovalbumin (323-339) GNPs: ovalbumin (323-339) peptide GNPs
fluorescent cells accumulated in the LN [4]: reduced numbers of fluorescent cells

B1: soluble IL-10: Human recombinant IL-10, not bound to nanoparticles (protein, UniProt P22301 19-178, looked up)
Interleukin-10: SPGQGTQSENSCTHFPGNLPNMLRDLRDAFSRVKTFFQMKDQLDNLLLKESLLEDFKGYLGCQALSEMIQFYLEEVMPQAENQDPDIKAHVNSLGENLKTLRLRLRRCHRFLPCENKSKAVEQVKNAFNKLQEKGIYKAMSEFDIFINYIEAYMTMKIRN
pro-inflammatory cytokine production (IL-12 and TNF) ([5]; LPS-treated DCs): reduced pro-inflammatory cytokine production
release of IL-10 in the culture ([5]; final IL-10 concentration 100 pg/ml): significantly higher release of IL-10
effect of IL-10 on proliferation of indicator T cells ([3]; preliminary in vivo experiment, IL-10 at the same concentration): no effect of proliferation
maturation of DCs upon LPS (phenotype) [6]: immature phenotype
